This experiment concerns CHO/PAR-2 cell membrane protein. Nature of the experiment: Lectin blotting of PAR-2 membrane sample. Format: binding. How it is done:
Membrane preparation was conducted as follows: Cells were cultured in five T175 flasks until confluency. Confluent cells were detached by applying 3 ml of EDTA solution onto the PBS washed cells. Following a 20-minute incubation at 37° C. and 5% CO2, cells were resuspended in 12 ml of starvation medium (standard medium without FCS), counted, and centrifuged in a Heraeus Megafuge 1.0R at 133 rcf for 4 minutes. All subsequent steps were carried out on ice and with ice cold solutions. After unification of all pellet fractions, hypotonic lysis buffer was added to the cells at a ratio of 1 ml per 5*10^7 cells. Additionally, protease inhibitor cocktail was added to 50 μl per 5*10^7 cells. Cells were homogenized with 30 strokes in a 5 ml potter on ice, centrifuged at 4° C. and 917 rcf for 10 minutes, and the supernatant was stored in an ultracentrifuge tube on ice. The pellet fraction was homogenized and centrifuged once again as described above. The supernatants of both procedures were unified and centrifuged at 4° C. and 100,000 rcf for 45 minutes in a Sorvall ultra-centrifuge. The supernatant of this centrifugation procedure was withdrawn and the pellet dissolved in 0.5 ml or 1.0 ml modified SDS PAGE loading buffer containing Tris-HCl, SDS, glycerol, but no β-mercapto-ethanol or dyes and stored in small aliquots of 50 μl at −20° C.
SDS-Page of membrane samples was conducted as follows: Discontinuous 12% polyacrylamide gels were prepared according to a standard protocol. Broad range marker and 25 μg membrane protein were mixed 1:1 with loading buffer and loaded five times onto a mini gel in alternating order. The gels were run at U=100 V for the first 20 minutes. Subsequently, voltage was increased to U=150 V. The run was aborted as soon as the pyronin G band reached the end of the gel. For coomassie staining, gels were put in coomassie staining solution on a shaker at low revolutions for 45 min. The staining solution was removed and the gel incubated with destaining solution for one to two hours, exchanging the solution several times until the desired contrast was obtained.
Blotting of membrane samples was conducted as follows: For blotting, 3 mm packs of Whatman papers were extensively soaked in one of the diverging blotting buffers, AB I, AB II, and CB, and a pile was assembled in a semi-dry Trans-Blot 3D system from Bio-Rad as depicted in the sketch of FIG. 2. Hybond nitrocellulose membrane was submerged in AB II prior to assembly. To smooth out any air bubbles from the pile, a Pasteur pipette was rolled several times over the top layer. The apparatus was closed and ran at U=25 V for 45 minutes. Then, the pile was disassembled, the membrane submerged in Ponceau S solution and gently swayed for 2 minutes. For destaining, ddH2O was substituted for the staining solution, and the membrane was briefly rinsed twice. After drying under ambient conditions, the marker bands were marked with a ballpoint-pen. The membrane was cut into slices each displaying one marker and one sample lane.
Probing of membrane samples was conducted as follows: For classical western blotting, membranes were blocked in PBS containing 5% low fat dried milk powder. They were placed on a rotating shaker at low revolutions for 1 hour. Subsequently, membranes were sealed in plastic bags with blocking solution additionally containing 1 μg/ml anti-PAR-2 antibody (1:400) or 0.5 μg/ml of anti-ETAR antibody (1:500), depending on the respective recombinant cell type used for the sample. […]

This note sets out measurements from patent publication US20100068747A1, “Generic Assay for Monitoring Endocytosis” (Evotec Technologies GmbH, priority 2005, published 2010).

“Also recorded” adds a separate entry of the source.

For the substance “succinylated Triticum vulgaris (wheat germ) agglutin [sWGA]”, the “striking bands below 35 kDa” value (PAR-2 sample) is “at least nine”. In addition, where the note is “biotinylated lectin 5 μg/ml”, the “band at the same height as the western band (55 kDa, anti-PAR-2)” value is reported as “one at the same height as the western band; also recorded: intense band”. For the setting “biotinylated lectin 5 μg/ml, exposure one to five minutes”, the “bands detected above 35 kDa” value was “two”.
